Read-outs that look alike come from different tables or passages of the source.
What was measured:
[1] = rats; 20 mg/kg caffeine and/or 0.1 g/kg tryptophan 1 h before ethanol; blood two hours after ethanol
Protocol: One hour later, ethanol was administered. After further two hours, blood was taken from the aorta abdominalis under anesthesia with pentobarbital (Sigma).

[2] = Blood ethanol in rats, caffeine + each of 20 amino acids; conditions: 0.1 g/kg amino acid together with 20 mg/kg caffeine 1 h before ethanol 2 g/kg, blood two hours after ethanol
Source text: One hour after the administration of each sample, ethanol (2 g/kg body weight) was orally administered. After further two hours, blood was taken from the aorta abdominalis under anesthesia with pentobarbital (Sigma).

[3] = rat, in vivo; cited from earlier work
[4] = Ethanol metabolism in human (ND), sample intake before ethanol: blood levels; type: in vivo; conditions: for blood ethanol level: human ALDH2*1/2 (ND), 3 mg/kg caffeine and/or 30 mg/kg serine orally 1 h before 0.4 g/kg ethanol, 30-180 minutes, vs control; for blood acetaldehyde level: human ND, 3 mg/kg caffeine and/or 30 mg/kg serine 1 h before 0.4 g/kg ethanol
Protocol: The subjects were asked to have no food and water from wake-up time to participate in the test. A control test was performed by 8 persons (as volunteers). Of the 8 persons participated in the control test, 5 persons were chosen to perform a sample administration test. […] . One hour after the sample intake, 5% ethanol solution (white liquor diluted with water) was divided into 6 portions and orally taken 6 times at the intervals of 4 minutes so as to take 0.4 g ethanol per a body weight (kg). Blood was taken immediately before alcohol drinking, 30, 60, 90, 120, and 180 minutes after alcohol drinking. Immediately upon taking blood, blood was mixed with a solution containing 0.6N perchlorate and 0.9% NaCl, and centrifugally separated at 3000 rpm for 20 minutes to remove protein. The ethanol, acetaldehyde and acetate concentrations of the supernatant were measured by gas chromatography manufactured by Perkin Elmer Corporation or Shimazu Corporation (Eriksson C J P et al., Anal. Biochem. Vol. 125, 259-263 (1982)). […] Furthermore, using the same plasma, blood lactate and pyruvate levels were measured by use of determiner LA (Kyowa Medics, Tokyo, Japan) and determiner PA (Kyowa Medics), respectively. Based on the ratio of lactate/pyruvate, the ratio of NADH/NAD^+ was calculated. On the other hand, at the same time of taking blood, 9-rank subjective evaluation was performed by the subjects with respect to “feeling of drunk” (by scores 0 to 8) and comfortable feeling (uncomfortable (score −4) to comfortable (score 4)).

[5] = Recovery from hypoglycemia at the time of fatigue (swimming mice); type: in vivo, Balb/c mice; conditions: exhausted mice; 80 mg/kg caffeine and/or 200 mg/kg serine orally; vs water control
Protocol: A swimming experiment of male Balb/c mice (Japan SLC) was performed under flowing water by use of a flowing-water vessel (developed by Matsumoto in Kyoto University). The mice (4 weeks old) were allowed to swim once in two different days at a flow rate of about 4.5 L/min (about 16 cm/sec) for 15 to 20 minutes to allow the mice to get use to the swimming environment. On the next week, these mice (5 weeks old) were fasted for 3 hours. After that, blood was taken from the tail and blood glucose level was measured by GLUTESTACE (Sanwa Kagaku Kenkyusho Co., Ltd.). Immediately after this, the mice were allowed to swim at a flow rate of about 5.5 L/min (about 19 cm/sec), in an intermittent manner. Intermittent swim was performed repeating a cycle consisting of 10-minute swim and 10-minute rest, twice, and then repeating a cycle consisting of 5-minute swim and 10-minute rest until the mice became too exhausted to swim. After the mice too exhausted to swim were allowed to leave alone for 15 minutes, the blood glucose level was checked. […]. A blood glucose level was measured with time.

[6] = Dissolution of serine in non-sugar coffee; conditions: 100, 500, 1000, 1500 and 2000 mg serine in 100 ml coffee
[7] = Blood ethanol in rats, sample administered after ethanol; conditions: 10 mg/kg caffeine and/or 100 mg/kg serine orally 1 h after ethanol 2 g/kg, blood five hours after ethanol, vs control
[8] = Blood ethanol level in rats, caffeine+serine administered before ethanol; type: in vivo, Wistar rats; conditions: 20 mg/kg caffeine and/or 0.1 g/kg serine orally 1 h before ethanol 2 g/kg, blood 1, 2, 3 and 5 hours, vs water control
Protocol: Four groups were prepared in total as follow. A control group of rats (n=6) was prepared by orally administering water. […] . […] Blood was taken from the cervical vein 1, 2, 3 and 5 hours after the administration. Immediately upon taking, the blood was mixed well with a solution containing 0.6N perchlorate and 0.9% NaCl, and centrifugally separated at 3000 rpm for 20 minutes to remove protein. The ethanol concentration of the supernatant was measured with a gas chromatograph manufactured by Shimazu Corporation (Eriksson C J P et al., Anal. Biochem. Vol. 125, 259-263 (1982)).

[9] = Blood glucose level in rats after caffeine administration; conditions: 100 mg/kg body weight caffeine orally, plasma two hours later, vs water control
[10] = mice; Kakuda T et al. 1996; cited from earlier work
serine dehydratase (SDS) = assay: Liver mRNA expression after caffeine administration (RT-PCR), SDS; conditions: rats, 100 mg/kg caffeine orally, two hours, corrected on housekeeping gene P0

Row | SMILES | blood ethanol level [1] | relative blood ethanol level compared to the caffeine-only group (regarded as 1) [2] | acute half lethal dose [3] [g/kg body weight] | blood ethanol level [4] | blood acetaldehyde level [4] | blood glucose level: recovery from hypoglycemia at the time of fatigue [5] | dissolution in non-sugar coffee [6] | relative blood ethanol concentration [7] | blood ethanol level [8] | blood glucose level [9] | amount needed to significantly reduce the blood ethanol level [10] [mg/kg body weight] | mRNA expression level of SDS in liver (serine dehydratase (SDS))
1 | N[C@@H](Cc1c[nH]c2ccccc12)C(=O)O [tryptophan] | No change was observed | blood ethanol reduction effect was observed | – | – | – | – | – | – | – | – | – | –
2 | N[C@@H](CO)C(=O)O [serine] | – | blood ethanol reduction effect was observed | 14 | rarely changed | did not significantly change | recovered from hypoglycemia | easily dissolved in non-sugar coffee without any appearance problem such as precipitation and turbidity | A slight downward tendency was observed in the serine single administration group compared to the control group, but it was not significant change | slightly decreased compared to the control group; however, this change observed in the all measurement time points had not a significance | – | – | –
3 | Cn1c(=O)c2c(ncn2C)n(C)c1=O [caffeine, 3,7-dihydro-1,3,7-trimethyl-1H-purine-2,6-dione, reference compound] | A slight downward tendency was observed in the caffeine administration group, but it is not significant change | – | – | rarely changed | did not significantly change | recovered from hypoglycemia | – | – | significantly decreased 2 hours after ethanol administration; however, a significant effect was not observed in other time point | increasing a blood glucose level | 300 | metabolism of serine and tryptophan was enhanced

Source: US20070207957A1, “Composition For Accelerating Alcohol Metabolism Or Relieving Fatigue By Gluconeogenesis” (Kirin Beer Kabushiki Kaisha, priority 2004, published 2007)
